According to US20100016435A1, “HYBRID MOLECULES HAVING MIXED VITAMIN D RECEPTOR AGONISM AND HISTONE DEACETYLASE INHIBITORY PROPERTIES” (McGill University, priority 2006, published 2010):
One block for each compound: values may come before it.

Tests used:
α-tubulin = test: α-Tubulin acetylation in SCC4 cells, Western blot; type: cell-based, human; conditions: for levels of acetylated alpha-tubulin normalized for total alpha-tubulin: 3 15 nM, 36 or 39 10^−6 or 10^−7M, 6 h or 24 h, FIG. 6C
Excerpt: (§1) FIG. 4 is an illustration of the HDAC inhibitory activity of 3 in the SCC4 cell line. FIG. 4A is an illustration of a western blot of nuclear and cytoplasmic extracts of SCC4 cells treated with vehicle (−), 1, or 3 alone or in combination, as indicated. The 55 kDa band corresponds to the molecular weight of tubulin. FIG. 4B illustrates a western blot probed with an antibody directed against acetylated histone H4 (AcH4) showing the effects of the treatments described in A on acetylation of histone H4. FIG. 4C illustrates western blots of the effects of treatments described in A on levels of total alpha-tubulin (left) and acetylated alpha-tubulin (right).
FIG. 6 is a comparison of the HDAC inhibitory activities of 1, 3, 6, 36 or 39 as assessed by their effects on acetylation of alpha-tubulin. In A, SCC4 cells were incubated with vehicle or compound 1 (10^−6M), 3 (15 nM), 6 (10^−6M) and 36 (10^−6M), as indicated for 6 h and protein extracts were probed for total α-tubulin (Tub.) or acetylated α-tubulin (AcTub.) by Western blotting. Blots for acetylated alpha-tubulin and total alpha-tubulin are shown. In B, SCC4 cells were incubated with vehicle or compound 3 (15 nM), 6 (10^−6M) or 36 (10^−6M) as indicated for 6 h or 24 h and protein extracts were probed for acetylated α-tubulin (AcTub.) by Western blotting. In C, SCC4 cells were incubated with vehicle or compounds 3 (15 nM), 36 (10^−6 or 10^−7M) or 39 (10^−6 or 10^−7M) as indicated for 6 h or 24 h and protein extracts were probed for total α-tubulin (tub.) or acetylated α-tubulin (AcTub.) by Western blotting.
(§2) In preliminary experiments, TSA-inducible protein acetylation was analyzed in nuclear and cytoplasmic extracts of SCC4 cells treated for 6 h with 1, 3, or 1 and 3 and subsequently probed by Western blotting for protein acetylation using an anti-acetyllysine antibody. […] Effects of 3 on histone acetylation specifically, were confirmed by probing for acetylation of histone H4 (FIG. 4B). […] However, it was not clear whether this corresponded to enhanced expression or acetylation. […] This was confirmed by probing cytoplasmic fractions with an antibody that recognized α-tubulin (FIG. 4C). Calcitriol (1) had no effect on the acetylation of α-tubulin, and none of the treatments had any substantial effect on total α-tubulin expression (FIG. 4C).
SCC4 cells were incubated with vehicle or compound as indicated for 6 h and cytoplasmic protein extracts were probed by Western blotting using a specific antibody for acetylated α-tubulin.

SCC4 cells [1] = test: Protein acetylation in nuclear and cytoplasmic extracts, Western blot with anti-acetyllysine antibody; type: cell-based, human; conditions: 6 h
Excerpt: as §1, §2

histone H4 = test: Histone H4 acetylation, Western blot; type: cell-based, human; conditions: SCC4 cells, 6 h
Excerpt: as §1, §2

SCC25 cells [2] = test: Antiproliferative activity in SCC25 cells; type: cell-based; conditions: 1 at 1 nM or 100 nM; 3 15 nM; combination 3 with 100 nM 1; FIG. 7B
Excerpt: FIG. 7 is an illustration of the antiproliferative activities of 1 and 3, individually or in combination, in SCC4 cells (A) or in SCC25 cells (B) at the concentrations indicated.

SCC4 cells [3] = test: Acidic β-galactosidase activity (marker of autophagy), X-Gal staining and 620 nm measurement; type: cell-based, human; conditions: for acidic β-galactosidase staining (X-Gal, pH 4.0), cytochemical: qualitative, FIG. 10A
Excerpt: FIG. 10 is an illustration of the effects of 1, 3, 1+3 and 6 on the induction of acidic β-galactosidase activity, a marker of autophagy (A); FIG. 10 is an illustration of the effects 1, 3, 1+3 and 6 on the levels of β-galactosidase expression as obtained by measuring the indigo cleavage product of X-Gal at 620 nm (B).
Since it was observed that treatment with 1 could enhance cell death by autophagy (ref. 26), the effects of different treatments on the induction of acidic β-galactosidase activity, a marker of autophagy (FIG. 10A) was tested.

SCC4 cells [4] = test: Cell cycle distribution by FACS analysis; type: cell-based, human; conditions: 100 nM 1, or 100 nM 1 and 15 nM 3; 72 h
Protocol: FIG. 11 is an illustration of the results obtained by fluorescence-activated cell sorting (FACS) analysis on the distribution of SCC4 cells in the cell cycle following treatment with vehicle (−), 1, or 1 and 3 together at the concentrations indicated.
The combined effects of 1 and 3 on the distribution of SCC4 cells in the cell cycle were assessed by FACS analysis (FIG. 11). Cells were treated with vehicle, 100 nM 1, or a combination of 100 nM 1 and 15 nM 3 for 72 h, as indicated.

SCC4 cells [5] = test: Immunocytochemical and morphological analysis (mitotic catastrophe); type: cell-based, human
Excerpt: FIG. 12 is an illustration of the immunocytochemical analysis of the effects of 1, 3, or 1 and 3 combined on SCC4 cells (A). […] Both phenotypes are characteristics of mitotic catastrophe. The lower panels (B) show cytoplasmic bridges between SCC4 cells treated with 1 and 3, consistent with the formation of the tubulin bridges seen above in A.
Assembly into microtubules is regulated by acetylation. […] Previous studies have shown that microtubule stabilizing agents can induce mitotic catastrophe (ref. 30). […] The formation of intercellular microtubular structures was consistent with observations in the light microscope of numerous intercellular bridges in cells treated with both 1 and 3 (FIG. 12B, arrows), but not in other treatment groups (not shown).

SCC4 cells [6] = conditions: cited from earlier work
SCC25 cells [7] = conditions: cited from earlier work
SCC4 cells [8] = test: Antiproliferative activity in SCC4 cells
Protocol: Tissue culture media was changed daily and fresh 1, 6 or vehicle were added.

human VDR = target: T1, human VDR (Homo sapiens, UniProt P11473); test: Reporter gene assay (VDRE-luciferase) in transiently transfected COS7 cells; type: cell-based
T1 construct: expressed in transfected cells; host or cells: COS7
T1 sequence (P11473 1-427): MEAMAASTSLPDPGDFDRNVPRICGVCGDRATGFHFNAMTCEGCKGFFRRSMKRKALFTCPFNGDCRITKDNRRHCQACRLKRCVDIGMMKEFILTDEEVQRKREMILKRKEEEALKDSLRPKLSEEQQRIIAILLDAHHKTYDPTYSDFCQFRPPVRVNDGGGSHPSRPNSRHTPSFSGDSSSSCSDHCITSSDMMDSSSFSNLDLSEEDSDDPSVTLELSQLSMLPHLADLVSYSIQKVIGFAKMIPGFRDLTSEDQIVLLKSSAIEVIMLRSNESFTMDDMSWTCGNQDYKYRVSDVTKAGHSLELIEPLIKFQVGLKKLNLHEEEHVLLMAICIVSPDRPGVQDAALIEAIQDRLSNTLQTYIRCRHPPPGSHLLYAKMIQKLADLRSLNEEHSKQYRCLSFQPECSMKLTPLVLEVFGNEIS
Protocol: FIG. 2 is an illustration of the vitamin D receptor agonist activity of 6 using a reporter gene assay in transiently transfected COS7 cells.
Hybrid molecule 6 was tested for calcitriol agonist activity using a reporter gene assay under standard conditions.^25,26 COS7 cells were transiently co-transfected with a plasmid expression vector for the human VDR, a plasmid vector expressing bacterial β-galactosidase from a constitutively active promoter (as an internal control for transfection efficiency), and a vector containing a luciferase reporter gene, under control of a previously described synthetic promoter composed of three high affinity VDREs (Vitamin D Response Elements) placed immediately upstream of a truncated promoter region from the herpes simplex virus thymidine kinase gene.^25 Cells were left overnight in the presence of DNA and transfection reagent (lipofectamine). The media were changed and cells were incubated in fresh media containing either vehicle (DMSO), 1 (100 nM), 3 (15 nM), 1 and 3 combined (100 nM/15 nM) or 6 (100 nM), and incubated a further 36 h.

HDAC = test: Colorimetric HDAC assay with nuclear extracts of SCC4 cells; type: biochemical, human
Protocol: FIG. 5 is a comparison of the capability of 3 and 6 (20 nM and 200 nM) in blocking deacetylation of a substrate that absorbs at 405 nm in its deacetylated form.
Hybrid molecule 6 was tested for HDAC inhibitory activity using a colorimetric assay as illustrated in FIG. 5. Nuclear extracts of SCC4 cells were incubated with vehicle, 3 or 6 in the presence of substrate for 60 min at 37° C. Following incubation with developer (1 min.), the absorbance was measured at 405 nm.

PC3 = test: Antiproliferative activity in PC3 prostate cancer cells; type: cell-based; conditions: PC3, data not shown
Du145 = test: Antiproliferative activity in Du145 prostate cancer cells; type: cell-based; conditions: Du145, data not shown
[9] = tested on: MCF-7 breast cancer cells; test: Cell viability, trypan blue dye exclusion assay; type: cell-based; conditions: 24 h; 6 at 10^−7 or 10^−6M versus 1 at 10^−6M or 1 and 3; FIG. 9A
Protocol: (§3) FIG. 9 is an illustration of the effects of 1, 3, 1+3, 6 and 36 administered at the concentrations indicated on cell viability in two models. The viability of MCF-7 breast cancer cells was monitored after 24 h of incubation using a trypan blue dye exclusion assay (A).
(§4) The effect of 1, 3, 1+3, 6 and 36 on cell viability was tested in two models. The viability of MCF-7 breast cancer cells was monitored after 24 h of incubation using a trypan blue dye exclusion assay (FIG. 9A). […] The effects of 100 nM 1, 15 nM 3 (TSA), 1 and 3 combined (100 nM/15 nM) and 100 nM 6 (hybrid molecule) on cell viability were tested by screening for induction of markers of apoptotic cell death. Annexin V staining was screened by FACS analysis as in Tavera-Mendoza et al.^26 While all treatments induced modest increases in annexin V staining, apoptosis could be excluded as the major cause of cell death (FIG. 9B).

SCC4 cells [10] = test: Annexin V staining by FACS (apoptotic cell death); type: cell-based, human; conditions: after pretreatment with UV light
Protocol: as §3, §4

Structure (SMILES): C[C@H](CCCC(=O)NO)[C@H]1CC[C@H]2/C(=C/C=C3C[C@@H](O)C[C@H](O)C3)CCC[C@]12C [compound 36]
- levels of acetylated alpha-tubulin normalized for total alpha-tubulin (α-tubulin): observed only in cells treated with 3
- tubulin acetylation (α-tubulin; 10^−6 M, 6 or 24 h, FIG. 6B): no effect

Structure (SMILES): C=C1/C(=C\C=C2/CCC[C@@]3(C)C2CCC3[C@H](C)CCCC(C)(C)O)C[C@@H](O)C[C@@H]1O (stereo partly drawn) [compound 1, 1α,25-Dihydroxyvitamin D3]
- levels of a product of ~70 kDa (SCC4 cells [1]; cytoplasmic extracts): modestly but consistently enhanced
- acetylation of low molecular weight nuclear proteins (SCC4 cells [1]; nuclear extracts): no effect
- histone H4 acetylation (histone H4): little effect
- acetylation of α-tubulin (α-tubulin; cytoplasmic fractions, FIG. 4C): no effect
- SCC25 proliferation / sensitivity (SCC25 cells [2]): relatively more sensitive
- acidic β-galactosidase staining (X-Gal, pH 4.0), cytochemical (SCC4 cells [3]): generally enhanced
- proportion of cells in G1 (SCC4 cells [4]): augmented
- proportion of cells in G2/M (SCC4 cells [4]): augmented
- proportion of cells in S phase (SCC4 cells [4]): substantially diminished
- cell morphology (SCC4 cells [5]; FIG. 12): did not differ from control cells
- induction of mitotic catastrophe (SCC4 cells [5]; SCC4 cells): not 1 or 3 alone
- resistance of SCC4 to antiproliferative effects (SCC4 cells [6]): resistant
- cell cycle arrest (SCC25 cells [7]): G0/G1 arrest
- SCC4 proliferation (SCC4 cells [8]; 1 nM or 100 nM 1, alone or with 15 nM 3, FIG. 7A): modest effects

- reporter gene activity (calcitriol agonist activity) (human VDR; COS7, 36 h, 1 100 nM, 3 15 nM, 6 100 nM, not normalized): essentially identical to that of 1
Structure (SMILES): CC(/C=C/C(=O)NO)=C\[C@@H](C)[C@H]1CC[C@H]2/C(=C/C=C3C[C@@H](O)C[C@H](O)C3)CCC[C@]12C [compound 6, (2E,4E,6R)-6-[(1R,3R,7E,17β)-1,3-dihydroxy-9,10secoestra-5,7-dien-17-yl]-N-hydroxy-4-methylhepta-2,4-dienamide]
- tubulin acetylation (α-tubulin; 1 μM, 6 h, FIG. 6A): marked tubulin acetylation
- tubulin acetylation (α-tubulin; after 24 h, FIG. 6B): remains elevated
- fold less potent than TSA (3) (HDAC; HDAC inhibition): about 10 fold
- inhibiting HDAC activity, compared with 3 (HDAC; equimolar concentrations (20 nM), 60 min at 37° C.): less effective
- antiproliferative activity (PC3): similar
- antiproliferative activity (Du145): similar
- cell death (viability) [9]: markedly more cell death
- annexin V staining versus 3, 1 or 1+3 (SCC4 cells [10]): substantially higher levels of apoptosis
- levels of autophagy (SCC4 cells [3]; cytochemical and quantitative analysis): elevated levels of autophagy
- increase in β-galactosidase expression versus 1 or 1+3 (SCC4 cells [3]; indigo cleavage product of X-Gal at 620 nm, FIG. 10B): ~30%
- acidic β-galactosidase staining (X-Gal, pH 4.0), cytochemical (SCC4 cells [3]): higher percentage of cells that stained intensely
- inhibition of SCC4 proliferation (SCC4 cells [8]; 96 h, media and compound changed daily, FIG. 8A): greater efficacy than 1

- expression from the internal control plasmid (β-galactosidase) (human VDR; COS7 cells): modestly enhanced expression
Structure (SMILES): C=C1/C(=C\C=C2/CCC[C@@]3(C)C2CCC3[C@H](C)/C=C/C=C/C(O)(CC)CC)C[C@@H](O)C[C@@H]1O (stereo partly shown) [compound 4, EB1089]

Structure (SMILES): C[C@H](CCCCC(=O)NO)[C@H]1CC[C@H]2/C(=C/C=C3C[C@@H](O)C[C@H](O)C3)CCC[C@]12C [compound 39]
- levels of acetylated alpha-tubulin normalized for total alpha-tubulin (α-tubulin): observed only in cells treated with 3
